Laboratory results from the kinase profiling compilation of Christmann-Franck et al. (2016).

What was measured:
Test in all cases: radiometric filter-binding kinase assay, Kinase HotSpot
Conditions in all cases: compound 0.5 µM; ATP 10 µM
ACVRL1 (human) = ACVRL1 (human) (UniProt P37023)
CAMK2B (human) = CAMK2B (human) (UniProt Q13554)
CAMKK2 (human) = CAMKK2 (human) (UniProt Q96RR4)
CHUK (human) = CHUK (human) (UniProt O15111)
CSNK1E (human) = CSNK1E (human) (UniProt P49674)
CSNK1G1 (human) = CSNK1G1 (human) (UniProt Q9HCP0)
DAPK3 (human) = DAPK3 (human) (UniProt O43293)
EGFR (human) = EGFR (human) (UniProt P00533)
EPHA2 (human) = EPHA2 (human) (UniProt P29317)
EPHB2 (human) = EPHB2 (human) (UniProt P29323)
ERBB2 (human) = ERBB2 (human) (UniProt P04626)
FER (human) = FER (human) (UniProt P16591)
GRK6 (human) = GRK6 (human) (UniProt P43250)
GSK3A (human) = GSK3A (human) (UniProt P49840)
Sequence of GSK3A (human) (P49840 whole entry, looked up): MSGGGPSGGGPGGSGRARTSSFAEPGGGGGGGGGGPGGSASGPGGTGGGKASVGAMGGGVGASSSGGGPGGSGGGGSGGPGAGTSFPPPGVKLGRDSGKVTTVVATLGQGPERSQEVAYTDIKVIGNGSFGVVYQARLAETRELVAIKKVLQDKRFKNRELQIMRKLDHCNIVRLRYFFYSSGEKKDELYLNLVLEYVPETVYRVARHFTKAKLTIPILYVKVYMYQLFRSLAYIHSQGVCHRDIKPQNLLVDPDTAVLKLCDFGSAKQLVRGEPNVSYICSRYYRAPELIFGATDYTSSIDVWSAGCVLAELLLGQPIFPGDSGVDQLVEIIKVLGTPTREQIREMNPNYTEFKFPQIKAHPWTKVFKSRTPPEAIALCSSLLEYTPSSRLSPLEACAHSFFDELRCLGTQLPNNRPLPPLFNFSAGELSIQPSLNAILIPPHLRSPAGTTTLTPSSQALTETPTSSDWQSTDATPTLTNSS

INSRR (human) = INSRR (human) (UniProt P14616)
IRAK1 (human) = IRAK1 (human) (UniProt P51617)
[1] = tested on: MAP2K6 (human), P52564 [S207E/T211E]
MAP3K2 (human) = MAP3K2 (human) (UniProt Q9Y2U5)
MAP3K7 TAB1 (human) = MAP3K7 TAB1 (human) (UniProt O43318+Q15750)
MAPK13 (human) = MAPK13 (human) (UniProt O15264)
Sequence of MAPK13 (human) (O15264 whole entry, looked up): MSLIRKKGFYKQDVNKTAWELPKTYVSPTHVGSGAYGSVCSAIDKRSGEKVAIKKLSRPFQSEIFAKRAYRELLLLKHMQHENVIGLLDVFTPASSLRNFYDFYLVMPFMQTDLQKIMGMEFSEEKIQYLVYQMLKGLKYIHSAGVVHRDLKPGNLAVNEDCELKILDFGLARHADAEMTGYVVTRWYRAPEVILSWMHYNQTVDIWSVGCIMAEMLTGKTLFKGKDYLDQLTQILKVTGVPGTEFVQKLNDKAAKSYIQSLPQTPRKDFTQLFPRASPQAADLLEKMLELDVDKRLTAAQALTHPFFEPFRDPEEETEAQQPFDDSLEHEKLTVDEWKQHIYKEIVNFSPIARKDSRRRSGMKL

MERTK (human) = MERTK (human) (UniProt Q12866)
MLTK (human) = MLTK (human) (UniProt Q9NYL2)
MYLK2 (human) = MYLK2 (human) (UniProt Q9H1R3)
NEK1 (human) = NEK1 (human) (UniProt Q96PY6)
NLK (human) = NLK (human) (UniProt Q9UBE8)
NTRK1 (human) = NTRK1 (human) (UniProt P04629)
PAK3 (human) = PAK3 (human) (UniProt O75914)
PAK6 (human) = PAK6 (human) (UniProt Q9NQU5)
PDGFRB (human) = PDGFRB (human) (UniProt P09619)
PLK3 (human) = PLK3 (human) (UniProt Q9H4B4)
PRKCG (human) = PRKCG (human) (UniProt P05129)
PRKD2 (human) = PRKD2 (human) (UniProt Q9BZL6)
Sequence of PRKD2 (human) (Q9BZL6 whole entry, looked up): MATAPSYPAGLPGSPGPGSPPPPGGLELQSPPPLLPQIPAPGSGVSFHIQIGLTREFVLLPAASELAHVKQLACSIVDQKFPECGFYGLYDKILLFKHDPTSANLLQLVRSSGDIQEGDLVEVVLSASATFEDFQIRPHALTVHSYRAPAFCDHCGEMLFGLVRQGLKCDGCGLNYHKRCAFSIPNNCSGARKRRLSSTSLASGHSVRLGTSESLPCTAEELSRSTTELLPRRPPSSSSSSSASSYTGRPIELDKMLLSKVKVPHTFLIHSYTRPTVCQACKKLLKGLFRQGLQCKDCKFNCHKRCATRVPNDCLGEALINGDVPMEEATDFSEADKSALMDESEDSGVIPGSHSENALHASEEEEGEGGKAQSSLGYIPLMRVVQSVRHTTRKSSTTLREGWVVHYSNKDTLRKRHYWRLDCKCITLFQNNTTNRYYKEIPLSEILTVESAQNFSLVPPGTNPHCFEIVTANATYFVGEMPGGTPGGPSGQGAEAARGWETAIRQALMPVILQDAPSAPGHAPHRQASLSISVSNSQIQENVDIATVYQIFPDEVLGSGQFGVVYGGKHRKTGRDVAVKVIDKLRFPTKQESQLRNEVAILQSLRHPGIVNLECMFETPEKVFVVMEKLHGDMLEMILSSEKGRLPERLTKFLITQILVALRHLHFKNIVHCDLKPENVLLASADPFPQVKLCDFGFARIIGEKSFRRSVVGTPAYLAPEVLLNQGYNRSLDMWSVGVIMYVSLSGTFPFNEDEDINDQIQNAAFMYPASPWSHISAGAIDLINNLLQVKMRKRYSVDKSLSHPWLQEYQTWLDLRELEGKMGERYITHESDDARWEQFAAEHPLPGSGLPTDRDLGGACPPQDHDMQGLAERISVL

PTK2 (human) = PTK2 (human) (UniProt Q05397)
PTK2B (human) = PTK2B (human) (UniProt Q14289)
Sequence of PTK2B (human) (Q14289 whole entry, looked up): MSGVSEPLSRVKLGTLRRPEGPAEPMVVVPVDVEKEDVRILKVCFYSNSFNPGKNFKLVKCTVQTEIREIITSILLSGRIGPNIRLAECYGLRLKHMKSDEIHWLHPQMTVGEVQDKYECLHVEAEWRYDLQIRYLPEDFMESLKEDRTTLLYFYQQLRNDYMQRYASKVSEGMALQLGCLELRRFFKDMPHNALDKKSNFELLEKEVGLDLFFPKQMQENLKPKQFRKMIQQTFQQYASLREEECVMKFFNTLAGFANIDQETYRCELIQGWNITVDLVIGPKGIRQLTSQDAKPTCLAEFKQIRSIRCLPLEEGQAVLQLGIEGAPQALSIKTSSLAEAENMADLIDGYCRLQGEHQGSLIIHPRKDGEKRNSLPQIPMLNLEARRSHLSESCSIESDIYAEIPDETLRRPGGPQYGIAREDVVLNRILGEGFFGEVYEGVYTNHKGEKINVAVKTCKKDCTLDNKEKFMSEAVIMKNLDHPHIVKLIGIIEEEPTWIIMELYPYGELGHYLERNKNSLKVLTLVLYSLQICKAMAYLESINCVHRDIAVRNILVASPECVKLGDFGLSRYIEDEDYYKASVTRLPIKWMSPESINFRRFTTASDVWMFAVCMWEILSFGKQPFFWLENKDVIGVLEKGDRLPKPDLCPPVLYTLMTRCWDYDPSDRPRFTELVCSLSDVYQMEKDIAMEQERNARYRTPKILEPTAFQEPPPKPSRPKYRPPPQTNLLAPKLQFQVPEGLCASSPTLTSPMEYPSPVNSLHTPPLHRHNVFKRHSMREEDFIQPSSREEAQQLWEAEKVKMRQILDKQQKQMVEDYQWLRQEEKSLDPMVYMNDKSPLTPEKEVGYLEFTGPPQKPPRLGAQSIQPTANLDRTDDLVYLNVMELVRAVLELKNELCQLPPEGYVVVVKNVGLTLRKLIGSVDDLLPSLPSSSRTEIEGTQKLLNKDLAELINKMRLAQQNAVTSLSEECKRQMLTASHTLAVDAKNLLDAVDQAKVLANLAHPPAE

RPS6KA4 KD2 (human) = RPS6KA4 KD2 (human) (UniProt O75676)
RPS6KA6 KD1 KD2 (human) = RPS6KA6 KD1 KD2 (human) (UniProt Q9UK32)
SRPK1 (human) = SRPK1 (human) (UniProt Q96SB4)
SRPK3 (human) = SRPK3 (human) (UniProt Q9UPE1)
STK25 (human) = STK25 (human) (UniProt O00506)
Sequence of STK25 (human) (O00506 whole entry, looked up): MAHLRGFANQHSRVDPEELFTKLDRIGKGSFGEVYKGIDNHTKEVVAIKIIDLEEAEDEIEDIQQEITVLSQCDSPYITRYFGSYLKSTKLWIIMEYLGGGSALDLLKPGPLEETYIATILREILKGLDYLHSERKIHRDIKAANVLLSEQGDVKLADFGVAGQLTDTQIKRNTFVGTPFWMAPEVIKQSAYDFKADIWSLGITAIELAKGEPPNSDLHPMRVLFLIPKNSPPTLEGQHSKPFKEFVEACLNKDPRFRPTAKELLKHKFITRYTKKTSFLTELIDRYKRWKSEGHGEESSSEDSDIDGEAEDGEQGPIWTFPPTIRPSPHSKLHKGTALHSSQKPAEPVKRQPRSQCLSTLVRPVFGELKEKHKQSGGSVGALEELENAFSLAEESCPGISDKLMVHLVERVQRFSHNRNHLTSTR

STK33 (human) = STK33 (human) (UniProt Q9BYT3)
STK4 (human) = STK4 (human) (UniProt Q13043)
Sequence of STK4 (human) (Q13043 whole entry, looked up): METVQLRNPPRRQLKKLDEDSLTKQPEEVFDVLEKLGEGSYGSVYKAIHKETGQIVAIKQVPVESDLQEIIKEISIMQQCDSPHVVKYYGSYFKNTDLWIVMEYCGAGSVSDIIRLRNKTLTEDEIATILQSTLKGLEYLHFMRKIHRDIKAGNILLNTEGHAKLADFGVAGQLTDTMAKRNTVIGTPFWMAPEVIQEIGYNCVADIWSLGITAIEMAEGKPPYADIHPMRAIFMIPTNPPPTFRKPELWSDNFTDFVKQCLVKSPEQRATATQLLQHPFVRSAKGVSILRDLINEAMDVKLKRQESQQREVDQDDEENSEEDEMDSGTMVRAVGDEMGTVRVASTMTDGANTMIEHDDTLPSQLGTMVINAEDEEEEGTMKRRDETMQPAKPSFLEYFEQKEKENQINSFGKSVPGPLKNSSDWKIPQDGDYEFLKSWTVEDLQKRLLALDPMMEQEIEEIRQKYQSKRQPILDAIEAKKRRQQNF

TSSK1B (human) = TSSK1B (human) (UniProt Q9BXA7)

Sequence of ACVRL1 (human) (P37023 whole entry, looked up): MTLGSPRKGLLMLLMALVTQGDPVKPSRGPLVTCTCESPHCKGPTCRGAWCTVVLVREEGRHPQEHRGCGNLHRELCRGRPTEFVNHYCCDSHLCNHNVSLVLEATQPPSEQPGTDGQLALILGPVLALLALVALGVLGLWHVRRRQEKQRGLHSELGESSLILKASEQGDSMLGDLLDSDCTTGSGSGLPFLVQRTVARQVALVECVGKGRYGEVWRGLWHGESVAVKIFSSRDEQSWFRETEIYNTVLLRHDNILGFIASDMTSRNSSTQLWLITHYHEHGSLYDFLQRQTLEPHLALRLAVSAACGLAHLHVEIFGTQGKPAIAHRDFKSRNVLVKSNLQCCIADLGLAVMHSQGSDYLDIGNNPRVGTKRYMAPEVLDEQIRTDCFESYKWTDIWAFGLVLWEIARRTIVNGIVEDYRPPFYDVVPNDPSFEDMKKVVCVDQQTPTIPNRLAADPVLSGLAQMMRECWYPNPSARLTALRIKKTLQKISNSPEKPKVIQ
Sequence of CAMK2B (human) (Q13554 whole entry, looked up): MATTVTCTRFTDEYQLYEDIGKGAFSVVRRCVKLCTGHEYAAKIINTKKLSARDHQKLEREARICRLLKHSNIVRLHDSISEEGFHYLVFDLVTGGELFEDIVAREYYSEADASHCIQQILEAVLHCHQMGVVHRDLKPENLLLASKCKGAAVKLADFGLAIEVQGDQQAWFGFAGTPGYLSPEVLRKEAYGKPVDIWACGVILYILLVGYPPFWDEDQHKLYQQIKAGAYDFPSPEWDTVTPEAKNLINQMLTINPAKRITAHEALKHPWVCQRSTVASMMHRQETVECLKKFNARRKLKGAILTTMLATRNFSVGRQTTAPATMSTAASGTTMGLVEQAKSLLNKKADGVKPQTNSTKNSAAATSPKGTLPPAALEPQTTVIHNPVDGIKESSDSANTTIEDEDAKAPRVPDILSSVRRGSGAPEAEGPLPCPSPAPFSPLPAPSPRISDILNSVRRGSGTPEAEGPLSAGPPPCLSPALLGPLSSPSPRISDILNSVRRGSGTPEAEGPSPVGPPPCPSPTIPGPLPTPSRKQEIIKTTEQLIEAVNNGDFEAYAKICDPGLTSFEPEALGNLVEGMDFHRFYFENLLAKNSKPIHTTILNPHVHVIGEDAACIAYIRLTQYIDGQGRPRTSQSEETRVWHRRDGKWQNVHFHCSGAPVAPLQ

Structure (SMILES): CN(C)S(=O)(=O)c1ccc2c(c1)/C(=C/c1cc3c([nH]1)CCCC3)C(=O)N2
- residual activity (ACVRL1 (human)): 102%
- residual activity (CAMK2B (human)): 70%
- residual activity (CAMKK2 (human)): 27.3%
- residual activity (CHUK (human)): 115%
- residual activity (CSNK1E (human)): 104%
- residual activity (CSNK1G1 (human)): 101%
- residual activity (DAPK3 (human)): 94.4%
- residual activity (EGFR (human)): 93.4%
- residual activity (EPHA2 (human)): 96.5%
- residual activity (EPHB2 (human)): 98.4%
- residual activity (ERBB2 (human)): 101%
- residual activity (FER (human)): 51.8%
- residual activity (GRK6 (human)): 82.6%
- residual activity (GSK3A (human)): 99.4%
- residual activity (INSRR (human)): 93.3%
- residual activity (IRAK1 (human)): 5.59%
- residual activity [1]: 94.6%
- residual activity (MAP3K2 (human)): 37%
- residual activity (MAP3K7 TAB1 (human)): 89%
- residual activity (MAPK13 (human)): 103%
- residual activity (MERTK (human)): 20.9%
- residual activity (MLTK (human)): 99.4%
- residual activity (MYLK2 (human)): 97.9%
- residual activity (NEK1 (human)): 93.1%
- residual activity (NLK (human)): 99.7%
- residual activity (NTRK1 (human)): 24.7%
- residual activity (PAK3 (human)): 97.6%
- residual activity (PAK6 (human)): 98.9%
- residual activity (PDGFRB (human)): 96.5%
- residual activity (PLK3 (human)): 94.5%
- residual activity (PRKCG (human)): 86.8%
- residual activity (PRKD2 (human)): 102%
- residual activity (PTK2 (human)): 33.1%
- residual activity (PTK2B (human)): 52.6%
- residual activity (RPS6KA4 KD2 (human)): 104%
- residual activity (RPS6KA6 KD1 KD2 (human)): 67.4%
- residual activity (SRPK1 (human)): 63.8%
- residual activity (SRPK3 (human)): 67.2%
- residual activity (STK25 (human)): 79.6%
- residual activity (STK33 (human)): 77.2%
- residual activity (STK4 (human)): 13.1%
- residual activity (TSSK1B (human)): 74.6%

Structure (SMILES): COc1ccc(C(=O)Nc2sc3c(c2C(N)=O)CCCC3)cc1OC
- residual activity (ACVRL1 (human)): 110%
- residual activity (CAMK2B (human)): 99.9%
- residual activity (CAMKK2 (human)): 96.9%
- residual activity (CHUK (human)): 83.3%
- residual activity (CSNK1E (human)): 94%
- residual activity (CSNK1G1 (human)): 90.1%
- residual activity (DAPK3 (human)): 102%
- residual activity (EGFR (human)): 99.9%
- residual activity (EPHA2 (human)): 102%
- residual activity (EPHB2 (human)): 73.5%
- residual activity (ERBB2 (human)): 93.3%
- residual activity (FER (human)): 89.8%
- residual activity (GRK6 (human)): 98.5%
- residual activity (GSK3A (human)): 83.6%
- residual activity (INSRR (human)): 99.7%
- residual activity (IRAK1 (human)): 79.8%
- residual activity [1]: 114%
- residual activity (MAP3K2 (human)): 105%
- residual activity (MAP3K7 TAB1 (human)): 101%
- residual activity (MAPK13 (human)): 109%
- residual activity (MERTK (human)): 85.4%
- residual activity (MLTK (human)): 93.8%
- residual activity (MYLK2 (human)): 94.4%
- residual activity (NEK1 (human)): 89.8%
- residual activity (NLK (human)): 93.7%
- residual activity (NTRK1 (human)): 104%
- residual activity (PAK3 (human)): 96.2%
- residual activity (PAK6 (human)): 85.7%
- residual activity (PDGFRB (human)): 90.9%
- residual activity (PLK3 (human)): 95%
- residual activity (PRKCG (human)): 93%
- residual activity (PRKD2 (human)): 99.4%
- residual activity (PTK2 (human)): 116%
- residual activity (PTK2B (human)): 95.5%
- residual activity (RPS6KA4 KD2 (human)): 102%
- residual activity (RPS6KA6 KD1 KD2 (human)): 98.5%
- residual activity (SRPK1 (human)): 82.6%
- residual activity (SRPK3 (human)): 92%
- residual activity (STK25 (human)): 91.7%
- residual activity (STK33 (human)): 99.5%
- residual activity (STK4 (human)): 104%
- residual activity (TSSK1B (human)): 115%

Structure (SMILES): COc1ccc2c(c1)c(C1=C(c3c[nH]c4ccccc34)C(=O)NC1=O)cn2CCCN(C)C
- residual activity (ACVRL1 (human)): 87.8%
- residual activity (CAMK2B (human)): 89.9%
- residual activity (CAMKK2 (human)): 82%
- residual activity (CHUK (human)): 96.5%
- residual activity (CSNK1E (human)): 86.4%
- residual activity (CSNK1G1 (human)): 84.1%
- residual activity (DAPK3 (human)): 75.5%
- residual activity (EGFR (human)): 92.6%
- residual activity (EPHA2 (human)): 91.3%
- residual activity (EPHB2 (human)): 78.7%
- residual activity (ERBB2 (human)): 115%
- residual activity (FER (human)): 70.9%
- residual activity (GRK6 (human)): 96.2%
- residual activity (GSK3A (human)): 14%
- residual activity (INSRR (human)): 101%
- residual activity (IRAK1 (human)): 89%
- residual activity [1]: 91.6%
- residual activity (MAP3K2 (human)): 80.6%
- residual activity (MAP3K7 TAB1 (human)): 102%
- residual activity (MAPK13 (human)): 108%
- residual activity (MERTK (human)): 84%
- residual activity (MLTK (human)): 95.9%
- residual activity (MYLK2 (human)): 96%
- residual activity (NEK1 (human)): 94.7%
- residual activity (NLK (human)): 87.9%
- residual activity (NTRK1 (human)): 83.1%
- residual activity (PAK3 (human)): 105%
- residual activity (PAK6 (human)): 70.4%
- residual activity (PDGFRB (human)): 75.8%
- residual activity (PLK3 (human)): 93%
- residual activity (PRKCG (human)): 54%
- residual activity (PRKD2 (human)): 92.3%
- residual activity (PTK2 (human)): 88.2%
- residual activity (PTK2B (human)): 104%
- residual activity (RPS6KA4 KD2 (human)): 78.6%
- residual activity (RPS6KA6 KD1 KD2 (human)): 4.52%
- residual activity (SRPK1 (human)): 116%
- residual activity (SRPK3 (human)): 89.5%
- residual activity (STK25 (human)): 55.7%
- residual activity (STK33 (human)): 56.2%
- residual activity (STK4 (human)): 65.2%
- residual activity (TSSK1B (human)): 80.3%

Structure (SMILES): CCCCc1c(-c2ccc(OC)cc2)[nH]c2nccnc12
- residual activity (ACVRL1 (human)): 77%
- residual activity (CAMK2B (human)): 97.6%
- residual activity (CAMKK2 (human)): 79.1%
- residual activity (CHUK (human)): 97.3%
- residual activity (CSNK1E (human)): 109%
- residual activity (CSNK1G1 (human)): 93.3%
- residual activity (DAPK3 (human)): 102%
- residual activity (EGFR (human)): 103%
- residual activity (EPHA2 (human)): 87.9%
- residual activity (EPHB2 (human)): 88.8%
- residual activity (ERBB2 (human)): 96.4%
- residual activity (FER (human)): 59.8%
- residual activity (GRK6 (human)): 88.3%
- residual activity (GSK3A (human)): 55.8%
- residual activity (INSRR (human)): 83.2%
- residual activity (IRAK1 (human)): 64.3%
- residual activity [1]: 96%
- residual activity (MAP3K2 (human)): 90.9%
- residual activity (MAP3K7 TAB1 (human)): 90.6%
- residual activity (MAPK13 (human)): 99.1%
- residual activity (MERTK (human)): 92.6%
- residual activity (MLTK (human)): 83.6%
- residual activity (MYLK2 (human)): 102%
- residual activity (NEK1 (human)): 86.9%
- residual activity (NLK (human)): 88.4%
- residual activity (NTRK1 (human)): 109%
- residual activity (PAK3 (human)): 106%
- residual activity (PAK6 (human)): 96.8%
- residual activity (PDGFRB (human)): 95.9%
- residual activity (PLK3 (human)): 91.5%
- residual activity (PRKCG (human)): 94.4%
- residual activity (PRKD2 (human)): 101%
- residual activity (PTK2 (human)): 81.7%
- residual activity (PTK2B (human)): 100%
- residual activity (RPS6KA4 KD2 (human)): 89.4%
- residual activity (RPS6KA6 KD1 KD2 (human)): 78.2%
- residual activity (SRPK1 (human)): 100%
- residual activity (SRPK3 (human)): 97.9%
- residual activity (STK25 (human)): 90.3%
- residual activity (STK33 (human)): 84.6%
- residual activity (STK4 (human)): 82.2%
- residual activity (TSSK1B (human)): 65.3%
